Results published in patent publication US6589993B2, “Treating vancomycin-intermediates and multiresistant staphylococci infection with thiamphenicol or a salt thereof” (Zambon Group S.p.A., priority 2000, dated 2003).
Converted amounts (≈) assume the structure as drawn. Read-outs that look alike come from different tables or passages of the source. Each block holds one compound with its values, some of them ahead of it.

Columns and labels:
[1] = test system: S. aureus Met-R multiresistant strains; experiment: MIC determination (NCCLS broth microdilution), methicillin-resistant multiresistant S. aureus strains; assay type: cell-based, Staphylococcus aureus; details: for MIC: antibiotype Oxa, Ery, read-out: MIC
Method: (§1) The MICs of thiamphenicol and of other antibiotics was obtained by using the method proposed by NCCLS (National Committee for Clinical Laboratory Standards, 1999).
(§2) Various antibiotic concentrations were added to bacteria in exponental growth (final inoculum 5×10^5 […]); dilution in Mb (cation-supplemented Mueller-Hinton broth) and distribution on a microplate by using an automatic diluting machine Biomek 1000 (Beckman, USA). MHb charged with 2% NaCl was used to test the methicillin activity.
(§3) The antibiotic concentration which hinders a visible growth after 18-24 hours of incubation at 37° C., was registered as MIC.
(§4) S. aureus ATCC 29213 was used as quality control strain.

[2] = test system: S. aureus vancomycin-intermediates (VISA) Met-R strains; experiment: MIC determination (NCCLS broth microdilution), VISA Met-R strains; assay type: cell-based, Staphylococcus aureus; details: for MIC: antibiotype Oxa, Cip, Clin, Ery
Method: as §1, §2, §3, §4

[3] = Staphylococcus aureus, Strain 1, Cip, Clin, Gm
[4] = Staphylococcus aureus, Strain 2, Clin, Fos
[5] = Staphylococcus aureus, Strain 3, Cip, Clin, Gm
[6] = Staphylococcus aureus, Strain 4, Cip, Gm
[7] = Staphylococcus aureus, Strain 5, Cip, Clin
[8] = Staphylococcus aureus, Strain 6, Clin, Gm
[9] = Staphylococcus aureus, Strain 7, Cip, Gm
[10] = Staphylococcus aureus, Strain 8, Cip, Clin
[11] = Staphylococcus aureus, Strain 9, Cip, Clin, Gm
[12] = Staphylococcus aureus, Strain 10, Cip, Clin, Gm
[13] = Staphylococcus aureus, Strain 11, Clin, Rif
[14] = Staphylococcus aureus, Strain 12, Cip, Clin
[15] = Staphylococcus aureus, Strain 13, Cip, Clin
[16] = Staphylococcus aureus, Strain 14, Clin, Cip
[17] = Staphylococcus aureus, Strain 15, Cip, Clin, Gm
[18] = Staphylococcus aureus, Strain 16, Cip, Clin
[19] = Staphylococcus aureus, Strain 17, Cip, Clin
[20] = Staphylococcus aureus, Strain 18, Cip, Clin, Gm
[21] = Staphylococcus aureus, Strain 19, Cip, Clin, Gm
[22] = Staphylococcus aureus, Strain 20, Cip, Clin, Gm
[23] = Staphylococcus aureus, Strain 21, Cip, Clin, Gm
[24] = Staphylococcus aureus, Strain 22, Cip, Clin
[25] = Staphylococcus aureus, Strain 23, Cip, Clin, Gm
[26] = Staphylococcus aureus, Strain 24, Cip, Clin, Gm
[27] = Staphylococcus aureus, Strain 25, Cip, Clin, Gm
[28] = Staphylococcus aureus, Strain 26, Cip, Clin, Fos, Gm
[29] = Staphylococcus aureus, Strain 27, Cip, Clin, Fos, Gm
[30] = Staphylococcus aureus, Strain 28, Cip, Clin, Gm
[31] = Staphylococcus aureus, Strain 29, Clin, Fos
[32] = Staphylococcus aureus, Strain 30, Cip, Clin, Gm, SXT, Dox
[33] = Staphylococcus aureus, Strain 31, Cip, Clin, Fox, Gm
[34] = Staphylococcus aureus, Strain 32, Cip, Clin, Gm, SXT, Rif
[35] = Staphylococcus aureus, Strain 33, Cip, Clin, Gm
[36] = Staphylococcus aureus, Strain 34, Cip, Clin, Gm
[37] = Staphylococcus aureus, Strain 35, Cip, Clin, Gm
[38] = Staphylococcus aureus, Strain 36, Cip, Clin, Fos
[39] = Staphylococcus aureus, Strain 37, Cip, Clin, Fos, Gm
[40] = Staphylococcus aureus, Strain 38, Cip, Gm
[41] = Staphylococcus aureus, Strain 39, Cip, Clin, Fos, Gm
[42] = Staphylococcus aureus, Strain 40, Cip, Clin, Gm
[43] = Staphylococcus aureus, Strain 41, Cip, Clin
[44] = Staphylococcus aureus, Strain 42, Cip, Clin, Gm
[45] = Staphylococcus aureus, Strain 43, Cip, Clin, Gm
[46] = Staphylococcus aureus, Strain 44, Cip, Clin, Gm, Rif, Dox
[47] = Staphylococcus aureus, Strain 45, Cip, Clin, Gm, Rif, Dox, Fos
[48] = Staphylococcus aureus, Strain 46, Clin, Fos
[49] = Staphylococcus aureus, Strain 47, Cip, Clin, Gm
[50] = Staphylococcus aureus, Strain 48, Cip, Clin
[51] = Staphylococcus aureus, Strain 49, Cip, Gm
[52] = Staphylococcus aureus, Strain 50, Cip, Clin, Gm, Rif, Dox
[53] = Staphylococcus aureus, Strain 51 VISA, read-out: MIC

MIC [1, 3]: > 64 µg/mL | MIC [1, 4]: > 64 µg/mL | MIC [1, 5]: > 64 µg/mL | MIC [1, 6]: > 64 µg/mL | MIC [1, 7]: > 64 µg/mL | MIC [1, 8]: > 64 µg/mL | MIC [1, 9]: 32 µg/mL (≈ 84.1 µM) | MIC [1, 10]: > 64 µg/mL | MIC [1, 11]: > 64 µg/mL | MIC [1, 12]: > 64 µg/mL | MIC [1, 13]: > 64 µg/mL | MIC [1, 14]: > 64 µg/mL | MIC [1, 15]: > 64 µg/mL | MIC [1, 16]: > 64 µg/mL | MIC [1, 17]: > 64 µg/mL | MIC [1, 18]: > 64 µg/mL | MIC [1, 19]: 64 µg/mL (≈ 168 µM) | MIC [1, 20]: > 64 µg/mL | MIC [1, 21]: > 64 µg/mL | MIC [1, 22]: > 64 µg/mL | MIC [1, 23]: > 64 µg/mL | MIC [1, 24]: > 64 µg/mL | MIC [1, 25]: > 64 µg/mL | MIC [1, 26]: > 64 µg/mL | MIC [1, 27]: > 64 µg/mL | MIC [1, 28]: > 64 µg/mL | MIC [1, 29]: > 64 µg/mL | MIC [1, 30]: > 64 µg/mL | MIC [1, 31]: > 64 µg/mL | MIC [1, 32]: 64 µg/mL (≈ 168 µM) | MIC [1, 33]: > 64 µg/mL | MIC [1, 34]: > 64 µg/mL | MIC [1, 35]: > 64 µg/mL | MIC [1, 36]: > 64 µg/mL | MIC [1, 37]: > 64 µg/mL | MIC [1, 38]: > 64 µg/mL | MIC [1, 39]: 64 µg/mL (≈ 168 µM) | MIC [1, 40]: > 64 µg/mL | MIC [1, 41]: 64 µg/mL (≈ 168 µM) | MIC [1, 42]: > 64 µg/mL | MIC [1, 43]: > 64 µg/mL | MIC [1, 44]: > 64 µg/mL | MIC [1, 45]: > 64 µg/mL | MIC [1, 46]: 64 µg/mL (≈ 168 µM) | MIC [1, 47]: > 64 µg/mL | MIC [1, 48]: > 64 µg/mL | MIC [1, 49]: > 64 µg/mL | MIC [1, 50]: 64 µg/mL (≈ 168 µM) | MIC [1, 51]: > 64 µg/mL | MIC [1, 52]: > 64 µg/mL | MIC [2, 53]: > 64 µg/mL | MIC ([2]; Strain 52 VISA): >64 µg/mL
Structure (SMILES): COc1cccc(OC)c1C(=O)N[C@@H]1C(=O)N2[C@@H]1SC(C)(C)[C@@H]2C(=O)O [Meth, methicilline]

MIC Range ([1]; S. aureus (50) Met-R): 4 to 64 µg/mL | MIC [1, 3]: 4 µg/mL (≈ 12.4 µM) | MIC [1, 4]: 64 µg/mL (≈ 198 µM) | MIC [1, 5]: 4 µg/mL (≈ 12.4 µM) | MIC [1, 6]: 4 µg/mL (≈ 12.4 µM) | MIC [1, 7]: 64 µg/mL (≈ 198 µM) | MIC [1, 8]: 64 µg/mL (≈ 198 µM) | MIC [1, 9]: 8 µg/mL (≈ 24.8 µM) | MIC [1, 10]: 64 µg/mL (≈ 198 µM) | MIC [1, 11]: 8 µg/mL (≈ 24.8 µM) | MIC [1, 12]: 4 µg/mL (≈ 12.4 µM) | MIC [1, 13]: 64 µg/mL (≈ 198 µM) | MIC [1, 14]: 64 µg/mL (≈ 198 µM) | MIC [1, 15]: 8 µg/mL (≈ 24.8 µM) | MIC [1, 16]: 8 µg/mL (≈ 24.8 µM) | MIC [1, 17]: 8 µg/mL (≈ 24.8 µM) | MIC [1, 18]: 8 µg/mL (≈ 24.8 µM) | MIC [1, 19]: 8 µg/mL (≈ 24.8 µM) | MIC [1, 20]: 64 µg/mL (≈ 198 µM) | MIC [1, 21]: 8 µg/mL (≈ 24.8 µM) | MIC [1, 22]: 64 µg/mL (≈ 198 µM) | MIC [1, 23]: 64 µg/mL (≈ 198 µM) | MIC [1, 24]: 8 µg/mL (≈ 24.8 µM) | MIC [1, 25]: 64 µg/mL (≈ 198 µM) | MIC [1, 26]: 64 µg/mL (≈ 198 µM) | MIC [1, 27]: 8 µg/mL (≈ 24.8 µM) | MIC [1, 28]: 8 µg/mL (≈ 24.8 µM) | MIC [1, 29]: 8 µg/mL (≈ 24.8 µM) | MIC [1, 30]: 64 µg/mL (≈ 198 µM) | MIC [1, 31]: 8 µg/mL (≈ 24.8 µM) | MIC [1, 32]: 8 µg/mL (≈ 24.8 µM) | MIC [1, 33]: 8 µg/mL (≈ 24.8 µM) | MIC [1, 34]: 64 µg/mL (≈ 198 µM) | MIC [1, 35]: 64 µg/mL (≈ 198 µM) | MIC [1, 36]: 64 µg/mL (≈ 198 µM) | MIC [1, 37]: 8 µg/mL (≈ 24.8 µM) | MIC [1, 38]: 8 µg/mL (≈ 24.8 µM) | MIC [1, 39]: 8 µg/mL (≈ 24.8 µM) | MIC [1, 40]: 8 µg/mL (≈ 24.8 µM) | MIC [1, 41]: 8 µg/mL (≈ 24.8 µM) | MIC [1, 42]: 8 µg/mL (≈ 24.8 µM) | MIC [1, 43]: 8 µg/mL (≈ 24.8 µM) | MIC [1, 44]: 8 µg/mL (≈ 24.8 µM) | MIC [1, 45]: 8 µg/mL (≈ 24.8 µM) | MIC [1, 46]: 8 µg/mL (≈ 24.8 µM) | MIC [1, 47]: 8 µg/mL (≈ 24.8 µM) | MIC [1, 48]: 8 µg/mL (≈ 24.8 µM) | MIC [1, 49]: 8 µg/mL (≈ 24.8 µM) | MIC [1, 50]: 64 µg/mL (≈ 198 µM) | MIC [1, 51]: 8 µg/mL (≈ 24.8 µM) | MIC [1, 52]: 64 µg/mL (≈ 198 µM) | MIC50 ([1]; Staphylococcus aureus, S. aureus (50) Met-R, read-out: MIC 50%): 8 µg/mL (≈ 24.8 µM) | MIC90 ([1]; Staphylococcus aureus, S. aureus (50) Met-R, read-out: MIC 90%): 64 µg/mL (≈ 198 µM) | MIC [2, 53]: 8 µg/mL (≈ 24.8 µM) | MIC ([2]; Strain 52 VISA): 8 µg/mL (≈ 24.8 µM) | MIC Range ([2]; VISA (2) Met-R): 8 µg/mL (≈ 24.8 µM)
Structure (SMILES): O=C(N[C@H](CO)[C@H](O)c1ccc([N+](=O)[O-])cc1)C(Cl)Cl [Cloramphenicol, cloramphenicol]
% susceptible at breakpoint ([1]; S. aureus (50) Met-R, NCCLS (1999) breakpoints): 66% | % susceptible at breakpoint ([2]; VISA (2) Met-R, NCCLS (1999) breakpoints): 100%
